In brackets after ≈: the same amount, converted by molar mass. Activity calls are given as the source filed them. No cut-off for these calls is given here.
Key:
[1] = tested on: Staphylococcus aureus; experiment: Antibacterial activity against Staphylococcus aureus 1199B measured after 24 hrs by Muller Hinton broth based MTT assay; type: functional
[2] = tested on: Staphylococcus aureus; experiment: Up regulation of NorA gene expression in Staphylococcus aureus 1199B at 1.55 ug/ml measured after 2 hrs by qRT-PCR analysis relative to control; type: functional; conditions: dose 1.55 µg/ml
[3] = tested on: Staphylococcus aureus; experiment: Bactericidal activity against Staphylococcus aureus 1199B at 50 ug/mL by time-kill kinetics assay; type: functional, organism-based; conditions: dose 50.0 µg/ml
[4] = tested on: Staphylococcus aureus; experiment: Bactericidal activity against Staphylococcus aureus 1199B assessed as bacterial count at 3.1 ug/mL measured after 24 hrs by time-kill kinetics assay; type: functional; conditions: dose 3.1 µg/ml
[5] = tested on: Staphylococcus aureus; experiment: Antibacterial activity against Staphylococcus aureus K1758 measured after 24 hrs by Muller Hinton broth based MTT assay; type: functional
[6] = tested on: Staphylococcus aureus; experiment: Antibacterial activity against Staphylococcus aureus 1199 measured after 24 hrs by Muller Hinton broth based MTT assay; type: functional
[7] = target: T1, Quinolone resistance protein NorA (Staphylococcus aureus) (UniProt P0A0J7); experiment: Inhibition of NorA in Staphylococcus aureus 1199B infected human THP-1 cells assessed as potentiation of norfloxacin-induced bactericidal activity by measuring reduction in bacterial count at 1.7 to 3.4 ug/ml measured after 24 hrs relative to control; type: cell-based; conditions: dose 1.7-3.4 µg/ml
T1 sequence (whole entry): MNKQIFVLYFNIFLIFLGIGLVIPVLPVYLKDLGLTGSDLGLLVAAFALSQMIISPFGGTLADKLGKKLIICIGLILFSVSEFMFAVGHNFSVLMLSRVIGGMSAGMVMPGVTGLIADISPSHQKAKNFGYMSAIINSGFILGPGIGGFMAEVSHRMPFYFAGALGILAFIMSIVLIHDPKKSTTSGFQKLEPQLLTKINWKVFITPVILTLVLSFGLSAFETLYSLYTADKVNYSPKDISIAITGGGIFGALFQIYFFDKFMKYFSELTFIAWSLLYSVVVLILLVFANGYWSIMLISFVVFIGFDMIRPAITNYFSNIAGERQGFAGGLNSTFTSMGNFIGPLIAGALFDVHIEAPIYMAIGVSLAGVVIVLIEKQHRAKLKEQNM

[8] = tested on: Staphylococcus aureus; experiment: Bactericidal activity against Staphylococcus aureus 1199B assessed as log reduction in bacterial count at 50 ug/mL measured after 8 hrs by time-kill kinetics assay; type: functional; conditions: dose 50 µg/ml

| SMILES | MIC [1] [µg/mL] | fold change (FC) [2] | inhibition [3] | Activity [4] [log10CFU/ml] | MIC [5] [µg/mL] | MIC [6] [µg/mL] | fold change (FC) [7] | Activity [8] [log10CFU/ml] |
| --- | --- | --- | --- | --- | --- | --- | --- | --- |
| CCn1cc(C(=O)O)c(=O)c2cc(F)c(N3CCNCC3)cc21 [NORFLOXACIN] | 50 (≈ 157 µM) | 0.076 | Active | 6 | 0.2 (≈ 0.626 µM) | 1.56 (≈ 4.89 µM) | – | – |
| CN[C@H](CC(C)C)C(=O)N[C@H]1C(=O)N[C@@H](CC(N)=O)C(=O)N[C@H]2C(=O)N[C@H]3C(=O)N[C@H](C(=O)N[C@H](C(=O)O)c4cc(O)cc(O)c4-c4cc3ccc4O)[C@H](O)c3ccc(c(Cl)c3)Oc3cc2cc(c3O[C@@H]2O[C@H](CO)[C@@H](O)[C@H](O)[C@H]2O[C@H]2C[C@](C)(N)[C@H](O)[C@H](C)O2)Oc2ccc(cc2Cl)[C@H]1O [VANCOMYCIN] | 1.7 (≈ 1.17 µM) | – | – | – | 0.1 (≈ 0.069 µM) | 0.42 (≈ 0.29 µM) | 2 | – |
| CC[n+]1c(-c2ccccc2)c2cc(N)ccc2c2ccc(N)cc21.[Br-] [HOMIDIUM BROMIDE] | 50 | – | – | – | – | – | – | >3 |
